ChEMBL document CHEMBL4622844, “Inhibition of bacterial growth and galactosyltransferase activity of WbwC by α, ω-bis(3-alkyl-1H-imidazolium)alkane salts: Effect of varying carbon content” (Bioorg Med Chem, 2020)
pIC50: −log10 of the molar value. One block for each compound: values may come before it. Active and inactive are the calls of the source. The calls are words filed in the database; no cut-off is given here.

Experiments:
[1] = Inhibition of recombinant Escherichia coli O104:H4 Beta-1,3-galactosyltransferase WbwC expressed in Escherichia coli BL21 in presence of UDP-[3H]Gal and GalNAC-PO3-PO3-(CH2)11-O-phenyl after 1 hr by scintillation counting method
Escherichia coli [2] = assay: Inhibition of recombinant Escherichia coli O104:H4 Beta-1,3-galactosyltransferase WbwC expressed in Escherichia coli BL21 at 0.5 mM in presence of UDP-[3H]Gal and GalNAC-PO3-PO3-(CH2)11-O-phenyl after 1 hr by scintillation counting method relative to control
[3] = target: T1, Beta-1,4-galactosyltransferase 1 (Bos taurus) (UniProt P08037); assay: Inhibition of bovine milk Beta-1,4-galactosyltransferase at 0.5 mM in presence of UDP-[3H]Gal and GlcNAc-beta-Bn after 1 hr by scintillation counting method
T1 sequence (whole entry): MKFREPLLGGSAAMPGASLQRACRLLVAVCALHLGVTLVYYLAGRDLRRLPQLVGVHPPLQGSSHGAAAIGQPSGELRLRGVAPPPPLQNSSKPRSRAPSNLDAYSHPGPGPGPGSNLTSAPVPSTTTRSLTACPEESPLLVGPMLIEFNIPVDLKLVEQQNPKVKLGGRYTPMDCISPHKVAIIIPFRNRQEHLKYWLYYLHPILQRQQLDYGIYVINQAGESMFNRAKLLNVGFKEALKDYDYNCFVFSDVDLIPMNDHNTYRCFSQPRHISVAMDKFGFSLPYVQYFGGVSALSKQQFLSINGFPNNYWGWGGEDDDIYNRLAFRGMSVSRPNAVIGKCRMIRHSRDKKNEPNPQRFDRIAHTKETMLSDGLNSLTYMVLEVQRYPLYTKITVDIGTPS

[4] = Growth inhibition of human OC-3-VGH cells at 1 mM after 24 hrs by MTT assay; type: cell-based; conditions: read-out: GI
Pseudomonas aeruginosa [5] = assay: Antimicrobial activity against Pseudomonas aeruginosa PAO1 assessed as inhibition of colony formation at 50 uM preincubated for 4 hrs and measured after overnight incubation by CFU assay; type: functional
Bacillus subtilis [6] = assay: Antimicrobial activity against Bacillus subtilis assessed as inhibition of colony formation at 10 uM preincubated for 4 hrs and measured after overnight incubation by CFU assay; type: functional
Escherichia coli [7] = assay: Antimicrobial activity against Escherichia coli BL21 assessed as inhibition of colony formation at 10 uM preincubated for 4 hrs and measured after overnight incubation by CFU assay; type: functional
[8] = test system: Staphylococcus epidermidis; assay: Antimicrobial activity against Staphylococcus epidermidis assessed as inhibition of colony formation at 10 uM preincubated for 4 hrs and measured after overnight incubation by CFU assay; type: functional
Escherichia coli [9] = assay: Antimicrobial activity against Escherichia coli BL21 assessed as inhibition of colony formation at 25 uM preincubated for 4 hrs and measured after overnight incubation by CFU assay; type: functional
Bacillus subtilis [10] = assay: Antimicrobial activity against Bacillus subtilis assessed as inhibition of colony formation at 5 uM preincubated for 4 hrs and measured after overnight incubation by CFU assay; type: functional
Pseudomonas aeruginosa [11] = assay: Antimicrobial activity against Pseudomonas aeruginosa PAO1 assessed as inhibition of colony formation at 25 uM preincubated for 4 hrs and measured after overnight incubation by CFU assay; type: functional
[12] = test system: Staphylococcus epidermidis; assay: Antimicrobial activity against Staphylococcus epidermidis assessed as inhibition of colony formation at 25 uM preincubated for 4 hrs and measured after overnight incubation by CFU assay; type: functional
Bacillus subtilis [13] = assay: Antimicrobial activity against Bacillus subtilis assessed as inhibition of colony formation at 25 uM preincubated for 4 hrs and measured after overnight incubation by CFU assay; type: functional
[14] = test system: Staphylococcus epidermidis; assay: Antimicrobial activity against Staphylococcus epidermidis assessed as inhibition of colony formation at 5 uM preincubated for 4 hrs and measured after overnight incubation by CFU assay; type: functional
Pseudomonas aeruginosa [15] = assay: Antimicrobial activity against Pseudomonas aeruginosa PAO1 assessed as inhibition of colony formation at 5 uM preincubated for 4 hrs and measured after overnight incubation by CFU assay; type: functional
Escherichia coli [16] = assay: Antimicrobial activity against Escherichia coli BL21 assessed as inhibition of colony formation at 5 uM preincubated for 4 hrs and measured after overnight incubation by CFU assay; type: functional
Pseudomonas aeruginosa [17] = assay: Antimicrobial activity against Pseudomonas aeruginosa PAO1 assessed as inhibition of colony formation at 10 uM preincubated for 4 hrs and measured after overnight incubation by CFU assay; type: functional
A549 [18] = assay: Growth inhibition of human A549 cells at 50 uM after 24 hrs by MTT assay; type: cell-based; conditions: a549, 24 h
AD293 [19] = assay: Growth inhibition of human AD293 cells at 50 uM after 24 hrs by MTT assay; type: cell-based; conditions: ad293, 24 h
OC-3-VGH [20] = assay: Growth inhibition of human OC-3-VGH cells at 50 uM after 24 hrs by MTT assay; type: cell-based
AD293 [21] = assay: Growth inhibition of human AD293 cells at 0.5 mM after 24 hrs by MTT assay; type: cell-based; conditions: ad293, 24 h, 500 µM
A549 [22] = assay: Growth inhibition of human A549 cells at 0.5 mM after 24 hrs by MTT assay; type: cell-based; conditions: a549, 24 h, 500 µM
[23] = Growth inhibition of human OC-3-VGH cells at 0.5 mM after 24 hrs by MTT assay; type: cell-based; conditions: read-out: GI
PC-3 [24] = assay: Growth inhibition of human PC3 cells after 24 hrs by MTT assay; type: cell-based; conditions: pc-3, 24 h
PC-3 [25] = assay: Growth inhibition of human PC3 cells at 0.5 mM after 24 hrs by MTT assay; type: cell-based; conditions: pc-3, 24 h, 500 µM
OC-3-VGH [26] = assay: Growth inhibition of human OC-3-VGH cells after 24 hrs by MTT assay; type: cell-based
A549 [27] = assay: Growth inhibition of human A549 cells after 24 hrs by MTT assay; type: cell-based; conditions: a549, 24 h
AD293 [28] = assay: Growth inhibition of human AD293 cells after 24 hrs by MTT assay; type: cell-based; conditions: ad293, 24 h
OC-3-VGH [29] = assay: Inhibition of cell migration in human OC-3-VGH cells at 500 uM incubated for 18 hrs by scratch wound healing assay; type: cell-based

pIC50 [1]: 3.92 | inhibition [3]: Active | inhibition (Escherichia coli [2]): 92%
SMILES: CCCCCCCCCCCC[n+]1ccn(CCCCCCCCCCCCCCCCn2cc[n+](CCCCCCCCCCCC)c2)c1

pIC50 [1]: 4.96 | inhibition (Escherichia coli [2]): 95%
SMILES: CCCCCCC[n+]1ccn(CCCCCCCCCCCCCCCCn2cc[n+](CCCCCCC)c2)c1

inhibition [3]: inactive
SMILES: CCCC(=O)N[C@@H]1[C@@H](O)[C@H](O)[C@@H](CO)O[C@H]1Sc1ccc2ccccc2c1
inhibition at 24 h, 1000 µM [4]: 50% | inhibition (Pseudomonas aeruginosa [5]): inactive

inhibition (Escherichia coli [2]): 6%
SMILES: CCCCCC[n+]1ccn(CCCCCCn2cc[n+](CCCCCC)c2)c1

pIC50 [1]: 4.64 | inhibition [3]: Active | inhibition (Escherichia coli [2]): 95%
SMILES: CCCCCCCCC[n+]1ccn(CCCCCCCCCCn2cc[n+](CCCCCCCCC)c2)c1

inhibition (Escherichia coli [2]): < 1%
SMILES: C[n+]1ccn(CCCCCCCCCCCCCCCCCCn2cc[n+](C)c2)c1.[Cl-].[Cl-]
growth inhibition (GI) (AD293 [21]): Toxic | growth inhibition (GI) (A549 [22]): Toxic | inhibition at 24 h, 500 µM [23]: 80% | growth inhibition (GI) (PC-3 [24]): Toxic | growth inhibition (GI) (PC-3 [25]): Toxic | pIC50 (OC-3-VGH [26]): 4.92 to 5.30 | growth inhibition (GI) (A549 [27]): Toxic | growth inhibition (GI) (AD293 [28]): Toxic

pIC50 [1]: 4.74 | inhibition (Escherichia coli [2]): 93%
SMILES: CCCCCCCC[n+]1ccn(CCCCCCCCCCCCCCCCn2cc[n+](CCCCCCCC)c2)c1

pIC50 [1]: 3.64 | inhibition (INH) (OC-3-VGH [29]): Active | inhibition (Escherichia coli [2]): 91%
SMILES: CS(=O)(=O)[O-].CS(=O)(=O)[O-].C[n+]1ccn(CCCCCCCCCCCCCCCCCCCCn2cc[n+](C)c2)c1
growth inhibition (GI) (AD293 [21]): Toxic | growth inhibition (GI) (A549 [22]): Toxic | inhibition at 24 h, 500 µM [23]: 80% | growth inhibition (GI) (PC-3 [24]): Toxic | growth inhibition (GI) (PC-3 [25]): Toxic | pIC50 (OC-3-VGH [26]): 4.92 to 5.30 | growth inhibition (GI) (A549 [27]): Toxic | growth inhibition (GI) (AD293 [28]): Toxic | inhibition at 50 µM (Pseudomonas aeruginosa [5]): > 90%

More lines, now with the values behind:

SMILES: CCCCCCCCCC[n+]1ccn(CCCCCCCCCCn2cc[n+](CCCCCCCCCC)c2)c1
pIC50 [1]: 3.82 | inhibition (Escherichia coli [2]): 98%

SMILES: CCCCCCC[n+]1ccn(CCCCCCCCCCn2cc[n+](CCCCCCC)c2)c1
inhibition (Escherichia coli [2]): < 1%

SMILES: CCCCCCCCC[n+]1ccn(CCCCCCn2cc[n+](CCCCCCCCC)c2)c1
inhibition (Escherichia coli [2]): < 10%

SMILES: CCCCCCCCCCC[n+]1ccn(CCCCCCCCCCCCCCCCn2cc[n+](CCCCCCCCCCC)c2)c1
inhibition at 10 µM (Bacillus subtilis [6]): 100% | inhibition at 10 µM (Escherichia coli [7]): 100% | pIC50 [1]: 3.91 | inhibition at 10 µM [8]: 100% | inhibition at 25 µM (Escherichia coli [9]): 100% | inhibition at 5 µM (Bacillus subtilis [10]): 100% | inhibition at 25 µM (Pseudomonas aeruginosa [11]): 100% | inhibition at 25 µM [12]: 100% | inhibition at 25 µM (Bacillus subtilis [13]): 100% | inhibition at 5 µM [14]: 100% | inhibition (Escherichia coli [2]): 92% | inhibition at 5 µM (Pseudomonas aeruginosa [15]): 28% | inhibition at 5 µM (Escherichia coli [16]): 100% | inhibition at 10 µM (Pseudomonas aeruginosa [17]): 77%

SMILES: c1cn(CCCCCCCCCCCCCCCCCCCCn2ccnc2)cn1
growth inhibition (GI) (A549 [18]): Non-Toxic | growth inhibition (GI) (AD293 [19]): Non-Toxic | growth inhibition (GI) (OC-3-VGH [20]): Non-Toxic

SMILES: C[n+]1ccn(CCCCCCCCCCCCCCCCCCCCCCn2cc[n+](C)c2)c1
pIC50 [1]: 3.80 | inhibition at 25 µM (Pseudomonas aeruginosa [11]): > 95% | inhibition (Escherichia coli [2]): 91% | inhibition at 50 µM (Pseudomonas aeruginosa [5]): 100%

SMILES: CCCCCCCCCCC[n+]1ccn(CCCCCCCCCCn2cc[n+](CCCCCCCCCCC)c2)c1
pIC50 [1]: 4.21 | inhibition (Escherichia coli [2]): 98%

SMILES: c1cn(CCCCCCCCCCCCCCCCn2ccnc2)cn1
growth inhibition (GI) (A549 [18]): Non-Toxic | growth inhibition (GI) (AD293 [19]): Non-Toxic | growth inhibition (GI) (OC-3-VGH [20]): Non-Toxic

SMILES: CCCCCCCCCCCC[n+]1ccn(CCCCCCCCCCn2cc[n+](CCCCCCCCCCCC)c2)c1
inhibition at 10 µM (Bacillus subtilis [6]): 100% | inhibition at 10 µM (Escherichia coli [7]): 100% | pIC50 [1]: 4.23 | inhibition at 10 µM [8]: 100% | inhibition at 25 µM (Escherichia coli [9]): 100% | inhibition [3]: Active | inhibition at 5 µM (Bacillus subtilis [10]): 100% | inhibition at 25 µM (Pseudomonas aeruginosa [11]): < 98% | inhibition at 25 µM [12]: 100% | inhibition at 25 µM (Bacillus subtilis [13]): 100% | inhibition at 5 µM [14]: 100% | inhibition (Escherichia coli [2]): 91% | inhibition at 5 µM (Pseudomonas aeruginosa [15]): > 98% | inhibition at 5 µM (Escherichia coli [16]): 100% | inhibition at 10 µM (Pseudomonas aeruginosa [17]): 100%
